In patent US10596150B2, “Antifungal agents” (F2G LIMITED, priority 2014, dated 2020):
Converted amounts (≈) assume the structure as drawn.

Columns and labels:
A. flavus = test: Minimum Inhibitory Concentration (MIC), RPMI medium; format: cell-based; details: Aspergillus flavus, >80% growth inhibition
Experimental: (§1) Between 1 and 5 mgs of the compound were accurately weighed out into a sterile Eppendorf tube. The compound was dissolved in DMSO to give a solution containing 5 mg/mL. Tubes were stored at −20° C. until required.
(§2) On the day of testing thawed solutions were vortex mixed to ensure homogeneity. 30 μL of solution was removed and added to 570 μL of sterile water in a separate sterile Eppendorf. The thoroughly mixed solution was used to prepare a series of doubling dilutions in water, in a deep well plate. Thirteen replicate plates were prepared using a Minitrak by aspirating 20 μL from each well into eleven clear polystyrene 96 well plates.
(§3) Spores of Aspergillus and Scedosporium were harvested from cultures grown on Sabarauds agar for 5 days, and resuspended in PBS/Tween 80 to approx 1×10^7 cfu/mL. Each organism suspension was diluted in RPMI medium, containing 2% glucose and 0.135 M MOPS buffer (pH 7.0) to 0.5-2×10^4 cfu/mL. 80 μL of an organism suspension was added to each well of the plate containing drug dilutions.
(§4) This produced MIC plates with a drug range 50-0.05 mg/L and organism inocula of 1-2×10^4 cfu/mL. All plates were incubated for 24-48 h at 35° C. Growth was assessed by monitoring the optical density at 485 nm for each well. The MIC of a compound is the lowest drug concentration that inhibits growth of an organism by >80% compared with a drug free control.

A. fumigatus 210 = test: as above; format: cell-based; details: Aspergillus fumigatus, >80% growth inhibition
Experimental: as §1, §2, §3, §4

A. fumigatus = test: as above; format: cell-based; details: Aspergillus fumigatus, >80% growth inhibition
Experimental: as §1, §2, §3, §4

A. niger = test: as above; format: cell-based; details: Aspergillus niger, >80% growth inhibition
Experimental: as §1, §2, §3, §4

A. terreus 49 = test: as above; format: cell-based; details: Aspergillus terreus, >80% growth inhibition
Experimental: as §1, §2, §3, §4

A. terreus = test: as above; format: cell-based; details: Aspergillus terreus, >80% growth inhibition
Experimental: as §1, §2, §3, §4

[1] = tested on: Scedosporium apiospermum 13486; test: as above; format: cell-based
Experimental: as §1, §2, §3, §4

[2] = tested on: Scedosporium apiospermum 15848; test: as above; format: cell-based
Experimental: as §1, §2, §3, §4

[3] = tested on: Scedosporium apiospermum 451; test: as above; format: cell-based
Experimental: as §1, §2, §3, §4

[4] = tested on: Scedosporium apiospermum 4883; test: as above; format: cell-based
Experimental: as §1, §2, §3, §4

[5] = tested on: Scedosporium apiospermum 7935; test: as above; format: cell-based
Experimental: as §1, §2, §3, §4

[6] = tested on: Scedosporium apiospermum 8353; test: as above; format: cell-based
Experimental: as §1, §2, §3, §4

[7] = tested on: Scedosporium prolificans 18389; test: as above; format: cell-based; details: Lomentospora prolificans
Experimental: as §1, §2, §3, §4

[8] = tested on: Scedosporium prolificans 206; test: as above; format: cell-based; details: Lomentospora prolificans
Experimental: as §1, §2, §3, §4

[9] = tested on: Scedosporium prolificans 6322; test: as above; format: cell-based; details: Lomentospora prolificans
Experimental: as §1, §2, §3, §4

[10] = tested on: Scedosporium species 15849; test: as above; format: cell-based
Experimental: as §1, §2, §3, §4

[11] = tested on: A. fumigatus strain A1163; test: Murine survival model of Aspergillus fumigatus infection (survival, kidney burden, serum galactomannan); format: in vivo, male CD-1 mice; details: positive control; 10 mg/kg b.i.d. by the oral route; A. fumigatus infected mice
Experimental: Murine survival models are frequently used to assess the efficacy of antifungal drugs against Aspergillus. The models used in the development of Example 1 were carried out at Euprotec Ltd (Manchester) a contract research organisation (CRO) with extensive experience in the evaluation of antifungal drugs. The typical model involves the use of groups of 6-10 male CD-1 mice per treatment group. Mice are immunosuppressed with 200 mg/kg cyclophosphamide injected intraperitoneal 3 days prior to infection. A. fumigatus strain A1163 is cultured on Sabourauds agar for 4-6 days at 35° C. Spores are harvested in phosphate buffered saline (PBS)/Tween, the suspension diluted and the number of spores enumerated. Mice are then infected with an intravenous injection of A. fumigatus spores given through the lateral tail vein. The typical inoculum is 6-8×10^4 cfu/mouse and is sufficient to kill all untreated animals by Day 4-6. The animals die of IA and Aspergillus organisms can be detected in many body tissues. Treatment is typically commenced soon after infection but delays of up to 24 h following infection produce a more challenging model. Treatment is continued for 7-9 days. Treatment may be up to 3 times daily using an oral dosing. Following cessation of treatment, animals are observed for 1-2 days, and then sacrificed. Relevant controls treated with oral drug-free vehicle are always included; ideally there should be no survivors in this group. A positive control consisting of an antifungal drug such as Reference Example 10 was used. This compound consistently produces 100% survival at doses of 10 mg/kg b.i.d. dosed by the oral route. Most models are run as temporary neutropenic models where only a single dose of cyclophosphamide is administered.
The fungal burden in the kidney can be determined on animals surviving to the end of the study and this can help provide efficacy discrimination between groups where all animals survive. Tissue burdens are carried out by removing the kidneys from animals when they are culled at the end of the study. These are homogenised in saline and plated onto Sabourauds agar and incubated at 35° C. for 72 h. Aspergillus colonies are counted and the amount of aspergillus per gram of kidney calculated. The results are expressed as colony forming units per gramme (cfu/g). […] However, data from studies where tissue burden has been carried out on untreated animals at day 4 or 5 has shown that tissue burdens are typically in excess of 20,000 cfu/g and may exceed 100,000 cfu/g in some studies.
In some of the survival studies described below serum samples were collected from surviving mice at the end of the study or on mice that succumbed to infection during the study to examine the effect of Example 1 on galactomannan levels and to see if there was a relationship between galactomannan levels and survival.
The galactomannan assays were carried out on serum samples that had been stored frozen at −80° C. Samples were thawed and assayed using a Platelia Aspergillus Ag enzyme-linked immunosorbent assay (ELISA) kit (Biorad). The assay was modified slightly to take into account the small sample volumes available from mice. If assay results were high a repeat test was carried out on a sample diluted in normal mouse serum. The amount of galactomannan in a sample is presented as a galactomannan index. The mean galactomannan index for each group was calculated and is presented graphically against each treatment regimen.
The survival study carried assessed the dose response of Example 1. Example 1 was dosed orally to A. fumigatus infected mice at 2 dose levels 10 mg/kg b.i.d. and 3 mg/kg b.i.d. Therapy was initiated at 24 h post infection and therapy continued for 8 days. At the end of the study kidney burdens were measured on surviving animals. In addition serum samples were taken at the end of the study from all surviving animals and from each animal that died during the course of the study. […]

L. prolificans FMR 3569 = test: Lomentospora prolificans FMR 3569 disseminated infection model (survival, tissue burden); format: in vivo, Male OF-1 mice; details: VRC 25 mg/kg p.o. QD; Example 1 20 mg/k p.o. BID; from day 1 after challenge for 9 days
Experimental: L. prolificans (also known as Scedosporium prolificans or S. prolificans) was grown on Potato Dextrose Agar (PDA) for 5 days at 35° C. On the day of infection, cultures were flooded with sterile saline and filtered through sterile gauze to remove clumps of conidia and hyphae. The resulting suspensions were adjusted by haemocytometer count and by serial plating to confirm viability.
Male OF-1 mice with a mean weight of 30 g were used in the experiment. Mice were housed in standard boxes with food and water ad libitum.
Mice were rendered neutropenic two days prior to infection by an intraperitoneal (i.p.) injection of 200 mg/kg of cyclophosphamide, and once every 5 days thereafter (Clemons et al, 2005).
Mice were challenged with 5×10^4 CFU/animal of L. prolificans FMR 3569, in a volume of 0.2 ml of sterile saline into the lateral tail vein.
Treatments consisted of (a) voriconazole (VRC) (Vfend; Pfizer S. A., Madrid, Spain) at 25 mg/kg p.o, by gavage QD; (b) Example 1 at 20 mg/k, p.o, by gavage BID; and (c) no treatment. From 3 days before infection, mice that received VRC were given grapefruit juice instead of water (Sugar & Liu, 2001). All treatments began 1 day after challenge, and the therapy lasted for 9 days. Controls received no treatment.
For survival studies groups of 10 mice were randomly established for each therapy. Mortality was recorded daily until the end of the experiment. […]

Cc1cc(C)nc(N2CCN(c3ccc(NC(=O)C(=O)c4c(-c5ccccc5)cc(C)n4C)cc3)CC2)c1 [Ref. Example 10, 2-(1,5-Dimethyl-3-phenyl-1H-pyrrol-2-yl)-N-{4-[4-(4,6-dimethyl-pyridin-2-yl)-piperazin-1-yl]-phenyl}-2-oxo-acetamide]
MIC (A. flavus): 0.04 to 0.06 µg/mL (≈ 0.0788 to 0.118 µM)
MIC (A. fumigatus 210): 0.02 to 0.04 µg/mL (≈ 0.0394 to 0.0788 µM)
MIC (A. fumigatus): 0.02 to 0.04 µg/mL (≈ 0.0394 to 0.0788 µM)
MIC (A. niger): > 0.06 µg/mL
MIC (A. terreus 49): 0.02 to 0.04 µg/mL (≈ 0.0394 to 0.0788 µM)
MIC (A. terreus): 0.02 to 0.04 µg/mL (≈ 0.0394 to 0.0788 µM)
MIC Scedosporium apiospermum 13486 [1]: F (a grade of F represents an MIC of greater than 0.06 mg/L)
MIC ([1]; Scedosporium apiospermum, 13486): > 0.06 µg/mL
MIC [2]: > 0.06 µg/mL
MIC [3]: > 0.06 µg/mL
MIC [4]: 0.02 to 0.04 µg/mL (≈ 0.0394 to 0.0788 µM)
MIC [5]: > 0.06 µg/mL
MIC [6]: 0.04 to 0.06 µg/mL (≈ 0.0788 to 0.118 µM)
MIC [7]: > 0.06 µg/mL
MIC [8]: > 0.06 µg/mL
MIC [9]: 0.04 to 0.06 µg/mL (≈ 0.0788 to 0.118 µM)
MIC [10]: > 0.06 µg/mL
survival [11]: 100%

C[C@@H](c1ncncc1F)[C@](O)(Cn1cncn1)c1ccc(F)cc1F [VRC, voriconazole]
survival rates compared with the control (FIG. 7) (L. prolificans FMR 3569): no significant increase
